Values joined by “and” are separate entries in the source; they are usually repeats but may differ in a detail not shown here. Identical values can stand only once. ± gives the expanded uncertainty stated by the source.
Settings: Liquid

## FC(F)(F)C(F)(F)C(F)(F)F [octafluoropropane]
253.3 K
  vapor or sublimation pressure: 194 ± 3 kPa
258.11 K
  vapor or sublimation pressure: 238 ± 3 kPa
263.23 K
  vapor or sublimation pressure: 287 ± 3 kPa
264.05 K
  vapor or sublimation pressure: 298 ± 4 kPa and 297 ± 4 kPa
268.17 K
  vapor or sublimation pressure: 343 ± 4 kPa
271.05 K
  vapor or sublimation pressure: 383 ± 4 kPa
278.05 K
  vapor or sublimation pressure: 483 ± 5 kPa
282.74 K
  vapor or sublimation pressure: 553 ± 6 kPa
292.81 K
  vapor or sublimation pressure: 743 ± 7 kPa
303.04 K
  vapor or sublimation pressure: 995 ± 10 kPa
308.04 K
  vapor or sublimation pressure: 1124 ± 11 kPa
312.78 K
  vapor or sublimation pressure: 1256 ± 12 kPa
322.96 K
  vapor or sublimation pressure: 1604 ± 16 kPa

## CC [ethane]
264.05 K
  vapor or sublimation pressure: 1862 ± 36 kPa
271.05 K
  vapor or sublimation pressure: 2275 ± 43 kPa
278.05 K
  vapor or sublimation pressure: 2700 ± 51 kPa
303.04 K
  vapor or sublimation pressure: 4600 ± 87 kPa
